Laboratory results from the supplement of paper PMC10307832.

Columns and labels:
Assay in all cases: relative viability (nuclei count vs DMSO), 5 days (fraction); higher = more cells survive
[1] = compound: O=C(NC1CCNCC1)c1n[nH]cc1NC(=O)c1c(Cl)cccc1Cl [AT-7519] + Cc1nc(Nc2ncc(C(=O)Nc3c(C)cccc3Cl)s2)cc(N2CCN(CCO)CC2)n1 [Dasatinib] (partner 0.075 µM)
How it was run: (§1)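 Lung cancer cell lines in 1536-well plates got either a single drug or a fixed anchor-drug dose together with five library-drug doses (not always all listed) in √10 steps, by pin tool, on the day after seeding. Nuclei were counted after 5 days, and relative viability is the treated-to-vehicle ratio of nuclei counts. Values are medians of duplicate plates.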

[2] = compound: O=C(NC1CCNCC1)c1n[nH]cc1NC(=O)c1c(Cl)cccc1Cl [AT-7519] + CC(C)C[C@H](NC(=O)[C@H](Cc1ccccc1)NC(=O)c1cnccn1)B(O)O [Bortezomib] (partner 0.002 µM)
How it was run: as §1

[3] = compound: C1=CC2=C(C=C(C(=C2N=C1)O)N=NC3=CC4=C(C=C3)C=C(C=C4)S(=O)(=O)O)S(=O)(=O)O + Nc1nc2[nH]cc(CCc3ccc(C(=O)N[C@@H](CCC(=O)O)C(=O)O)cc3)c2c(=O)[nH]1 [Pemetrexed] (partner 0.2 µM)
How it was run: as §1

[4] = compound: O=C(NC1CCNCC1)c1n[nH]cc1NC(=O)c1c(Cl)cccc1Cl [AT-7519] + O=C(CCCCCCC(=O)Nc1ccccc1)NO [Vorinostat] (partner 1 µM)
How it was run: as §1

NCI-H650 showed a relative viability ([1]; first compound 0.01 µM) of 0.437, a relative viability ([1]; first compound 0.03162 µM) of 0.423 and a relative viability ([1]; first compound 0.3162 µM) of 0.465. The relative viability ([1]; first compound 1 µM) was 0.488, the relative viability ([2]; first compound 0.01 µM) was 0.827 and the relative viability ([2]; first compound 0.03162 µM) was 0.75. For the same cell line, the relative viability ([2]; first compound 0.3162 µM) was 0.86, the relative viability ([2]; first compound 1 µM) was 0.975 and the relative viability ([3]; first compound 0.08 µM) was 1.04. It also gave a relative viability ([3]; first compound 0.253 µM) of 0.922, a relative viability ([3]; first compound 0.8 µM) of 0.956 and a relative viability ([3]; first compound 2.53 µM) of 0.936. The relative viability ([3]; first compound 8 µM) was 0.791, the relative viability ([4]; first compound 0.01 µM) was 0.504 and the relative viability ([4]; first compound 0.03162 µM) was 0.459. It also gave a relative viability ([4]; first compound 0.3162 µM) of 0.46 and a relative viability ([4]; first compound 1 µM) of 0.599.

Cell Line PC-3 [JPC-3] has a relative viability ([1]; first compound 0.01 µM) of 0.841, a relative viability ([1]; first compound 0.03162 µM) of 0.99 and a relative viability ([1]; first compound 0.3162 µM) of 0.915. The relative viability ([1]; first compound 1 µM) was 1.04, the relative viability ([2]; first compound 0.01 µM) was 0.947 and the relative viability ([2]; first compound 0.03162 µM) was 0.863. For the same cell line, the relative viability ([2]; first compound 0.3162 µM) was 0.86, the relative viability ([2]; first compound 1 µM) was 0.848 and the relative viability ([3]; first compound 0.08 µM) was 1.07. It also gave a relative viability ([3]; first compound 0.253 µM) of 1.03, a relative viability ([3]; first compound 0.8 µM) of 1.04 and a relative viability ([3]; first compound 2.53 µM) of 1.16. The relative viability ([3]; first compound 8 µM) was 0.999, the relative viability ([4]; first compound 0.01 µM) was 0.667 and the relative viability ([4]; first compound 0.03162 µM) was 0.773. For the same cell line, the relative viability ([4]; first compound 0.3162 µM) was 0.884 and the relative viability ([4]; first compound 1 µM) was 1.17.
